Reference: patent US20250019369A1, “N-(4-aminocyclohexyl)pyrimidine-4-carboxamide derivatives as CD38 inhibitors” (Cerevance, Inc., priority 2021, published 2025)
Counter-ions that a name gives are not always drawn. Like-named read-outs stand apart in the source and are kept apart here.

Tests used:
Recombinant mouse CD38 = Recombinant mouse CD38 (Mus musculus (Mouse), UniProt P56528); assay: Mouse CD38 hydrolase assay (fluorescence, ε-NAD substrate); type: biochemical; settings: recombinant mouse CD38 0.4 nM, 12 μM ε-NAD, 30 min preincubation at 25° C., pH 7.4
Description: (§1) The ability of test compounds to inhibit mouse CD38 hydrolase activity was measured in a fluorescence-based assay using non-physiological NAD^+ substrate analogue 1,N^6-etheno NAD^+ (ε-NAD). Recombinant mouse CD38 (0.4 nM) was preincubated with test compounds in 384-well black microplates for 30 min at 25° C. in PBS (—Ca^2+/Mg^2+) containing 0.005% BSA (pH 7.4). CD38 hydrolase activity was initiated by addition of 12 μM ε-NAD, which yields the fluorescent product 1,N^6-etheno ADP-ribose. Formation of fluorescent product was followed using ClarioStar Plus (BMG) microplate reader by reading fluorescence (excitation λ=300 nm; emission λ=410 nm) at two time points, one immediately after substrate addition (t=0) and one at 6 min (t=6).
(§2) Data was analysed by subtracting the values detected at t=0 from t=6 to correct for variation in baseline fluorescence, and fluorescence values were converted to percent inhibition using the average of high signal (CD38 and ε-NAD) and low signal (CD38 and ε-NAD in the presence of a tool CD38 inhibitor) control wells. IC50 values were determined from a 10-point, half log concentration response curve with a four-parameter logistic equation.

Recombinant human CD38 = Recombinant human CD38 (Homo sapiens (Human), UniProt P28907); assay: Human CD38 hydrolase assay (fluorescence, ε-NAD substrate); type: biochemical; settings: recombinant human CD38 0.8 nM, 4 μM ε-NAD, 30 min preincubation at 25° C., pH 7.4
Description: as §1, with “inhibit human” for “inhibit mouse”, “Recombinant human” for “Recombinant mouse”, “CD38 (0.8” for “CD38 (0.4”, “of 4” for “of 12”, “at 10” for “at 6”, “min (t=10).” for “min (t=6).”
as §2, with “t=10” for “t=6”, “fluorescence. Fluorescence” for “fluorescence, and fluorescence”

[1] = PK brain permeability in C57BL/6 mice after single oral gavage; type: in vivo; settings: 2 hours post dose; for concentration at 2 h: po, 10 mg/kg
Description: The distribution of compounds into the brain in vivo was determined in C57BL/6 mice following single oral (po) gavage administration.
Test compounds were formulated at 1 mg/mL in 0.5% HPMC E4 M, 0.2% Tween 80 in water to achieve solutions or homogenous suspensions suitable for po administration.
Formulations were administered to 3 male C57BL/6 mice at a volume of 10 mL/kg resulting in a dose level of 10 mg/kg. Blood samples were collected at 1 and 2 hours post dose into tubes containing K2EDTA as anticoagulant, processed to plasma and stored at −60° C. or lower until LC-MS/MS analysis. Brains were harvested 2 hours post dose, rinsed with saline, dried, weighed and homogenised under ice cold conditions. Brain homogenates were stored at −60° C. or lower until LC-MS/MS analysis.
Dose formulation concentrations were verified using a LC-UV or LC-MS/MS method. Test compound concentrations in plasma and brain homogenate were quantitatively determined using LC-MS/MS methods developed in individual matrices against calibration curves with QC samples included and acceptance criteria as per CRO SOPs. Concentrations in brain homogenate were corrected for the dilution factor used to prepare the homogenate to give concentrations in whole brain tissue.
Plasma and brain concentration versus time data were reported and plotted in excel. The brain to plasma ratio at 2 hours post dose was calculated for each animal using the following equation:
Brain:plasma=brain concentration (ng/g) at 2 h/plasma concentration (ng/mL) at 2 h
As only unbound test compound is available to exert an effect on the target, unbound plasma (Cp,u) and unbound brain (Cb,u) concentrations were calculated by correcting the total concentrations for the unbound fraction in plasma (fu,p) or brain (fu,b) determined from in vitro plasma protein or brain tissue binding assays using the following equations: […]
The unbound partitioning coefficient (Kpu,u) was then calculated based on the ratio of Cb,u to Cp,u using the following equation: […]
In these studies, mice were orally administrated a 10 mg/kg dose and sacrificed 2 hours post dose and tissue samples (brain homogenate and plasma) were analyzed subsequently as described above.

Chain of Recombinant mouse CD38 (P56528 whole entry): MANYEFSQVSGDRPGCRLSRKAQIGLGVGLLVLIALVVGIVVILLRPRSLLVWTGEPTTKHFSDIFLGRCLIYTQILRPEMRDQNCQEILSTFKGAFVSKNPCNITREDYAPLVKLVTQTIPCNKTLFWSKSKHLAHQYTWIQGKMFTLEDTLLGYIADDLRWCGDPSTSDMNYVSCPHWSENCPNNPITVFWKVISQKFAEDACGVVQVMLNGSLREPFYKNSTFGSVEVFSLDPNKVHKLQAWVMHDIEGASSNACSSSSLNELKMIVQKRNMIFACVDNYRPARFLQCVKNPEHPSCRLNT
Chain of Recombinant human CD38 (P28907 whole entry): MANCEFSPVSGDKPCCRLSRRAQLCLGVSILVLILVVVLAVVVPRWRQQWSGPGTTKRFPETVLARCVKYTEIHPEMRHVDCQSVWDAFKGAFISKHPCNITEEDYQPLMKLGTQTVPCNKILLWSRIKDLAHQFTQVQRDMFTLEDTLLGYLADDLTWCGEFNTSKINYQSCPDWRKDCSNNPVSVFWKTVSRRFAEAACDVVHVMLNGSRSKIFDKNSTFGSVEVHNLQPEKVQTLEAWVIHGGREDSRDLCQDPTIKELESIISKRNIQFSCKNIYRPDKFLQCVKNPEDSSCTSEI

SMILES: Cc1cc(C(=O)N[C@H]2CC[C@H](NCC(F)(F)F)CC2)nc(-c2cncn2C)n1 [Example 4, 6-methyl-2-(1-methyl-1H-imidazol-5-yl)-N-((1r,4r)-4-((2,2,2-trifluoroethyl)amino)cyclohexyl)pyrimidine-4-carboxamide]
- IC50 (Recombinant mouse CD38): ≤ 40 nM

SMILES: Cc1cc(C(=O)N[C@H]2CC[C@H](NCC(F)(F)F)CC2)nc(-c2cncs2)n1 [Example 5, 6-methyl-2-(thiazol-5-yl)-N-((1r,4r)-4-((2,2,2-trifluoroethyl)amino)cyclohexyl)pyrimidine-4-carboxamide]
- IC50 (Recombinant human CD38): ≤ 1000 nM
- IC50 (Recombinant mouse CD38): ≤ 40 nM

SMILES: CCc1cc(C(=O)N[C@H]2CC[C@H](NCC(F)(F)F)CC2)nc(-n2ccnc2)n1 [Example 6, 6-ethyl-2-(1H-imidazol-1-yl)-N-((1r,4r)-4-((2,2,2-trifluoroethyl)amino)cyclohexyl)pyrimidine-4-carboxamide]
- IC50 (Recombinant human CD38): ≤ 100 nM
- IC50 (Recombinant mouse CD38): ≤ 40 nM

SMILES: Cc1cc(C(=O)N[C@H]2CC[C@H](N(C)CC(F)(F)F)CC2)nc(-n2ccnc2)n1 [Example 7, 2-(1H-imidazol-1-yl)-6-methyl-N-((1r,4r)-4-(methyl(2,2,2-trifluoroethyl)amino)cyclohexyl)pyrimidine-4-carboxamide]
- IC50 (Recombinant human CD38): ≤ 100 nM

SMILES: Cc1cc(C(=O)N[C@H]2CC[C@H](NCC(F)F)CC2)nc(-c2cncs2)n1 [Example 8, N-((1r,4r)-4-((2,2-difluoroethyl)amino)cyclohexyl)-6-methyl-2-(thiazol-5-yl)pyrimidine-4-carboxamide]
- IC50 (Recombinant human CD38): ≤ 1000 nM

SMILES: Cc1cc(C(=O)N[C@H]2CC[C@H](NCCF)CC2)nc(-n2ccnc2)n1 [Example 9, N-((1r,4r)-4-((2-fluoroethyl)amino)cyclohexyl)-2-(1H-imidazol-1-yl)-6-methyl-pyrimidine-4-carboxamide formate]
- IC50 (Recombinant human CD38): ≤ 1000 nM
- IC50 (Recombinant mouse CD38): ≤ 40 nM

SMILES: Cc1cc(C(=O)N[C@H]2CC[C@@H](N3CCC(F)(F)C3)CC2)nc(-n2ccnc2)n1 [Example 11, N-((1s,4s)-4-(3,3-difluoropyrrolidin-1-yl)cyclohexyl)-2-(1H-imidazol-1-yl)-6-methyl-pyrimidine-4-carboxamide]
- IC50 (Recombinant human CD38): ≤ 10000 nM

SMILES: Cc1cc(C(=O)N[C@H]2CC[C@H](N3CC[C@H](F)C3)CC2)nc(-n2ccnc2)n1 [Example 12, N-((1s,4r)-4-((S)-3-fluoropyrrolidin-1-yl)cyclohexyl)-2-(1H-imidazol-1-yl)-6-methyl-pyrimidine-4-carboxamide]
- IC50 (Recombinant human CD38): ≤ 100 nM
- IC50 (Recombinant mouse CD38): ≤ 40 nM

SMILES: Cc1cc(C(=O)N[C@H]2CC[C@H](N3CC[C@@H](F)C3)CC2)nc(-n2ccnc2)n1 [Example 13, N-((1r,4r)-4-((R)-3-fluoropyrrolidin-1-yl)cyclohexyl)-2-(1H-imidazol-1-yl)-6-methyl-pyrimidine-4-carboxamide]
- IC50 (Recombinant human CD38): ≤ 100 nM
- IC50 (Recombinant mouse CD38): ≤ 40 nM

SMILES: Cc1cc(C(=O)N[C@H]2CC[C@H](NCC(F)(F)F)CC2)nc(-c2cn[nH]c2)n1 [Example 14, 6-methyl-2-(1H-pyrazol-4-yl)-N-((1r,4r)-4-((2,2,2-trifluoroethyl)amino)cyclohexyl)pyrimidine-4-carboxamide]
- IC50 (Recombinant mouse CD38): ≤ 1000 nM

SMILES: Cc1cc(C(=O)N[C@H]2CC[C@H](NCC(F)F)CC2)nc(-c2cn[nH]c2)n1 [Example 15, N-((1r,4r)-4-((2,2-difluoroethyl)amino)cyclohexyl)-6-methyl-2-(1H-pyrazol-4-yl)pyrimidine-4-carboxamide]
- IC50 (Recombinant human CD38): ≤ 10000 nM
- IC50 (Recombinant mouse CD38): ≤ 1000 nM

SMILES: O=C(N[C@H]1CC[C@H](NCC(F)F)CC1)c1cc(C2CC2)cc(-n2ccnc2)n1 [Example 16, 4-cyclopropyl-N-((1r,4r)-4-((2,2-difluoroethyl)amino)cyclohexyl)-6-(1H-imidazol-1-yl)picolinamide]
- IC50 (Recombinant human CD38): ≤ 1000 nM
- IC50 (Recombinant mouse CD38): ≤ 40 nM

SMILES: CCN[C@H]1CC[C@H](NC(=O)c2cc(C)nc(-n3ccnc3)n2)CC1 [Example 19, N-((1r,4r)-4-(ethylamino)cyclohexyl)-2-(1H-imidazol-1-yl)-6-methyl-pyrimidine-4-carboxamide Formate]
- IC50 (Recombinant human CD38): ≤ 100 nM
- IC50 (Recombinant mouse CD38): ≤ 40 nM

SMILES: O=C(N[C@H]1CC[C@H](NCC(F)(F)F)CC1)c1cc(C2CC2)cc(-n2ccnc2)n1 [Example 20, 4-cyclopropyl-6-(1H-imidazol-1-yl)-N-((1r,4r)-4-((2,2,2-trifluoroethyl)amino)cyclohexyl)picolinamide]
- IC50 (Recombinant human CD38): ≤ 100 nM
- IC50 (Recombinant mouse CD38): ≤ 40 nM

SMILES: Cc1cc(C(=O)N[C@H]2CC[C@H](N[C@@H](C)C(F)(F)F)CC2)nc(-n2ccnc2)n1 [Example 22, 2-(1H-imidazol-1-yl)-6-methyl-N-((1S,4r)-4-(((S)-1,1,1-trifluoropropan-2-yl)amino)cyclohexyl)pyrimidine-4-carboxamide]
- IC50 (Recombinant human CD38): ≤ 40 nM
- IC50 (Recombinant mouse CD38): ≤ 40 nM

SMILES: Cc1cc(C(=O)N[C@H]2CC[C@H](N[C@H](C)C(F)(F)F)CC2)nc(-n2ccnc2)n1 [Example 23, 2-(1H-imidazol-1-yl)-6-methyl-N-((1R,4r)-4-(((R)-1,1,1-trifluoropropan-2-yl)amino)cyclohexyl)pyrimidine-4-carboxamide]
- IC50 (Recombinant human CD38): ≤ 40 nM
- IC50 (Recombinant mouse CD38): ≤ 40 nM

SMILES: Cc1cc(C(=O)N[C@H]2CC[C@H](NCC(F)(F)F)CC2)nc(-n2cncc2C)n1 [Example 24, 6-methyl-2-(5-methyl-1H-imidazol-1-yl)-N-((1r,4r)-4-((2,2,2-trifluoroethyl)amino)cyclohexyl)pyrimidine-4-carboxamide]
- IC50 (Recombinant human CD38): ≤ 100 nM
- IC50 (Recombinant mouse CD38): ≤ 40 nM

SMILES: Cc1cc(C(=O)N[C@H]2CC[C@H](CNCC(F)(F)F)CC2)nc(-n2ccnc2)n1 [Example 25, 2-(1H-imidazol-1-yl)-6-methyl-N-((1r,4r)-4-(((2,2,2-trifluoroethyl)amino)methyl)cyclohexyl)pyrimidine-4-carboxamide]
- IC50 (Recombinant human CD38): ≤ 40 nM
- IC50 (Recombinant mouse CD38): ≤ 40 nM

SMILES: Cc1cc(C(=O)N[C@H]2CC[C@H](C(=O)NCC(F)(F)F)CC2)nc(-n2ccnc2)n1 [Example 26, 2-(1H-imidazol-1-yl)-6-methyl-N-((1r,4r)-4-((2,2,2-trifluoroethyl)carbamoyl)cyclohexyl)pyrimidine-4-carboxamide]
- IC50 (Recombinant human CD38): ≤ 40 nM
- IC50 (Recombinant mouse CD38): ≤ 40 nM

SMILES: O=C(N[C@H]1CC[C@H](NCC(F)(F)F)CC1)c1nc(-n2ccnc2)nc2cc[nH]c12 [Example 29, 2-(1H-imidazol-1-yl)-N-((1r,4r)-4-((2,2,2-trifluoroethyl)amino)cyclohexyl)-5H-pyrrolo[3,2-d]pyrimidine-4-carboxamide, reference compound]
- concentration at 2 h ([1]; male, C57BL/6, mouse, brain, read-out: total brain conc.): 1770 nM
- concentration at 2 h ([1]; male, C57BL/6, mouse, brain, total corrected for unbound fraction in brain, read-out: free brain conc.): 224 nM
- Kpu,u (unbound brain/plasma partition coefficient) at 2 h ([1]; male, C57BL/6, mouse, brain/plasma, oral 10 mg/kg, read-out: Kpu,u (unbound partitioning coefficient, Cb,u/Cp,u)): 0.18
- concentration at 2 h ([1]; male, C57BL/6, mouse, plasma, read-out: total plasma conc.): 11100 nM
- concentration at 2 h ([1]; male, C57BL/6, mouse, plasma, total corrected for unbound fraction in plasma, read-out: free plasma conc.): 1260 nM
- brain exposure (in words) ([1]; oral 10 mg/kg, comment on Table 3, with lower Kpu,u values): much reduced brain exposure
